In publication PMC10233092, “Selective Janus kinase 1 inhibition resolves inflammation and restores hair growth offering a viable treatment option for alopecia areata” (Skin Health and Disease, 2023):
Several values for one entry are separate records, joined by “and”; a condition that tells them apart may be missing. Equal entries are not always repeated.

Columns and labels:
[1] = Caco permeability and efflux; format: in vitro ADME; conditions: human, Caco-2
Source text: TABLE 2 In vitro and in vivo DMPK properties of Cmpd A, B & C | column: In vitro mouse & physical chemical properties / Caco AtB 10^−6 cm/s/Efflux ratio ^b

JAK1 = JAK1 (Homo sapiens, UniProt P23458); assay: JAK1 kinase inhibition, Calliper assay; format: biochemical; conditions: physiological ATP concentration of 5 mM
Chain of JAK1 (P23458 whole entry, species assumed): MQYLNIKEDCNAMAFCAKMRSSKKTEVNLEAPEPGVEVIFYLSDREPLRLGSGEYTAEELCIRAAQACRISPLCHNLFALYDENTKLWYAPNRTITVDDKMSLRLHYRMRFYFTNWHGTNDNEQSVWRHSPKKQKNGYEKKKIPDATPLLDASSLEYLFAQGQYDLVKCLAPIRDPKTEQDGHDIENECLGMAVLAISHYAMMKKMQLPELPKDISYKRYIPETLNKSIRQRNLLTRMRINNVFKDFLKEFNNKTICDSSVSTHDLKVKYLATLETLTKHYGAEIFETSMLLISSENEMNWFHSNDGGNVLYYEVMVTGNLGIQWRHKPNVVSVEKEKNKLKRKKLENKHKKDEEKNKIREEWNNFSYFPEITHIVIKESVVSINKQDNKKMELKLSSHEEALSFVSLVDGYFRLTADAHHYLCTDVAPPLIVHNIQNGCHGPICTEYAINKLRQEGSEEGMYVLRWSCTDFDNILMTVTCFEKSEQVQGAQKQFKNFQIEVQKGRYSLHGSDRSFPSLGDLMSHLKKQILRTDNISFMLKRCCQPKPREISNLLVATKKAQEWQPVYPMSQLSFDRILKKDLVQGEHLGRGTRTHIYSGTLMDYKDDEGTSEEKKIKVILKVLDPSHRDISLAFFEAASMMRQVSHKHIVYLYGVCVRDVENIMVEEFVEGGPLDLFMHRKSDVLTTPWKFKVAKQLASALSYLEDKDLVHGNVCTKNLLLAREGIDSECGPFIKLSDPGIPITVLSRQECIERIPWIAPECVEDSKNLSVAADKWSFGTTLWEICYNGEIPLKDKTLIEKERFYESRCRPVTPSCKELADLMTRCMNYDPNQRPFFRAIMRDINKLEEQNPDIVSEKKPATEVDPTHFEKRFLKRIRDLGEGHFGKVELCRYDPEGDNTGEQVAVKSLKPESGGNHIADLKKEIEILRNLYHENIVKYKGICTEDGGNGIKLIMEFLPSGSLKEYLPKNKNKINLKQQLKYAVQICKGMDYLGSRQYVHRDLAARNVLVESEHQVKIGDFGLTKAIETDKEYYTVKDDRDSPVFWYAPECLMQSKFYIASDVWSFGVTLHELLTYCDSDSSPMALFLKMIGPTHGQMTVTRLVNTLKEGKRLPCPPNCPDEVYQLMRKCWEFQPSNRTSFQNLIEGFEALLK

[2] = tested on: C3H/HeJ mouse model of AA; assay: Hair growth (Hair Index Score) in C3H/HeJ graft-induced AA mice; format: in vivo; conditions: for Hair index score (% area x score, 0 to 3): individual mice and mean±SD
Experimental: Female C3H/HeJ graft‐induced mice were used as a preclinical model of Alopecia Areata (AA) according to previous publications.[45], [46], [47] Healthy C3H/HeJ and mice with fully developed AA (16–24 weeks after induction of disease) were monitored by means of body weight and hair index score on a weekly basis for 12 weeks, with free access to food and water (Healthy and AA groups, respectively).
Hair growth was evaluated using a scoring index (Hair Index Score, HIS). A score from 0 to 3 (0 = no fur, 1 = stubble, short broken hairs, 2 = sparse, intermediate length hairs, 3 = normal length and density hairs) was taken times the surface area of the mouse with each respective score (dorsal area = 50%, ventral area = 50%).
12 mice were given once daily servings of Cmpd A for free eating at approximately 100 mg/kg (compound dissolved in 10 ml tap water and mixed with 5 g grounded R70 standard rodent chow from Lantmännen, Sweden) for 4 weeks. Typically, these servings were finished within 2 h. Six mice were terminated at the end of the treatment period, blood and skin taken for determination of drug concentration and skin sampled for histopathological evaluation (see below, these mice are representing the systemic JAK1 inhibition group in histopathological evaluations). Skin biopsies for mRNA expression and blood was sampled from the other 6 mice where after these mice were followed off treatment for an additional 8 weeks when terminal samples were taken (8w off Tx group).
Another set of 6 mice were treated topically on the right side of their back with Cmpd B (0.1% cream formulation, Eucerin Aquaporin rich) for 12 weeks (local JAK1 inhibition group). Initially, twice weekly for 2 weeks followed by once weekly due to high tissue retention. Plasma exposure was evaluated during the course of the study as well as at termination when also skin was sampled for exposure, histopathological evaluation and mRNA expression.
The aim of the study was to achieve similar skin exposures by both routes of administration but only systemic exposure after oral administration. […] Blood, skin, lymph nodes and spleens were collected at termination for evaluation of exposure, mRNA expression, histopathology (RNAScope) and cell differentials (flow cytometry). Untreated healthy and alopecic mice served as controls (n = 6).

Basic pKa = format: physicochemical; conditions: read-out: Basic pKa's
Source text: TABLE 2 In vitro and in vivo DMPK properties of Cmpd A, B & C | column: In vitro mouse & physical chemical properties / Basic pKa's

IL‐4, STAT6‐Luc = assay: IL-4-induced JAK-STAT6-luciferase assay in U937 monocytes; format: cell-based; conditions: Homo sapiens, U-937, interleukin at EC80
JAK3 = molecular target: T1, JAK3 (Homo sapiens, UniProt P52333); assay: JAK3 kinase inhibition, Calliper assay; format: biochemical; conditions: physiological ATP concentration of 5 mM
T1 sequence (P52333 1-1124): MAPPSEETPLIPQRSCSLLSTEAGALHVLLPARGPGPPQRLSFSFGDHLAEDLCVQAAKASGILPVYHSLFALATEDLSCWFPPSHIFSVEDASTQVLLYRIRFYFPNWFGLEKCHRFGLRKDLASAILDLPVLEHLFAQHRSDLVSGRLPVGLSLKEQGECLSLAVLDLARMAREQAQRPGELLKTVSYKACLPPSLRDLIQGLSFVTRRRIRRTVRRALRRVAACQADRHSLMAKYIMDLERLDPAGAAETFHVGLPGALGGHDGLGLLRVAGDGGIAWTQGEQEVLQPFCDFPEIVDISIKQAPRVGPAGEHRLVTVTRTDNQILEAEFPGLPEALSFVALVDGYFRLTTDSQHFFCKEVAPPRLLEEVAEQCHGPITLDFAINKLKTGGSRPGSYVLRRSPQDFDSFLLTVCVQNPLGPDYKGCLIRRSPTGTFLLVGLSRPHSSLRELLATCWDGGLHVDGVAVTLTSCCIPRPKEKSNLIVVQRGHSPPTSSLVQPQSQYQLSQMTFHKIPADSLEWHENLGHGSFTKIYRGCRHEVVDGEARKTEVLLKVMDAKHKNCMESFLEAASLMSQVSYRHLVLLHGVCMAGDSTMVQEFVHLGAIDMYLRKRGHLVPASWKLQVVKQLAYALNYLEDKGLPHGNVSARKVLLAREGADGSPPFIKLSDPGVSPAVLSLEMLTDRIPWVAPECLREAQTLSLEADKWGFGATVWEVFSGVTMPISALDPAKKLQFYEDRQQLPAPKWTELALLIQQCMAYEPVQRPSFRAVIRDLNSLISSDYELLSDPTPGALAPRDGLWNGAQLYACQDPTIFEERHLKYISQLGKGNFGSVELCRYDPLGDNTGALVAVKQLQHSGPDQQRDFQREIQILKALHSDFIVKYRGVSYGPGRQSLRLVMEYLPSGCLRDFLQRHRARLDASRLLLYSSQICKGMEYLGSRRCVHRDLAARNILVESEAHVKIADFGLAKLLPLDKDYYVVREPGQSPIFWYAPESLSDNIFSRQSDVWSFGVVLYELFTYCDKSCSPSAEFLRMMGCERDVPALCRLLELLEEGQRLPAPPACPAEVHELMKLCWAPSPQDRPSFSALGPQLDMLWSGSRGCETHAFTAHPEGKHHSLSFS

LogD7.4 = format: physicochemical; conditions: pH 7.4
Source text: TABLE 2 In vitro and in vivo DMPK properties of Cmpd A, B & C | column: In vitro mouse & physical chemical properties / LogD7.4

Cc1cnc(Nc2cccnc2F)nc1-c1c[nH]c2c(NC(=O)[C@@H](C)N3CCN(C)CC3)cccc12 [Cmpd A]
efflux ratio ([1]; Efflux ratio = BtA/AtB): 1 | Papp A→B ([1]; read-out: Caco AtB): 21 ×10⁻⁶ cm/s | IC50 (JAK1): 27 nM | remission after treatment cessation ([2]; AA mice, 4 weeks treatment, followed 8 weeks off treatment): relapsed after treatment cessation | hair growth, result in words ([2]; AA mice, oral daily servings (systemic exposure)): quick and complete restoration of hair growth | time to complete regrowth (Hair Index Score) ([2]; AA mice, oral treatment, n = 6 per group): ≤ 4 weeks | Hair index score (% area x score, 0 to 3) ([2]; Systemic JAK1i group terminated at w4 (oral ~100 mg/kg daily), w0, n=6, 100 mg/kg): 0 and 20 | Hair index score (% area x score, 0 to 3) ([2]; Systemic JAK1i group terminated at w4 (oral ~100 mg/kg daily), w0, n=6, 100 mg/kg, mean): 3±8 | Hair index score (% area x score, 0 to 3) ([2]; Systemic JAK1i group terminated at w4, w1): 0 and 15 and 10 | Hair index score (% area x score, 0 to 3) ([2]; Systemic JAK1i group terminated at w4, w1, mean): 7±7 | Hair index score (% area x score, 0 to 3) ([2]; Systemic JAK1i group terminated at w4, w2): 160 and 170 and 180 and 120 and 190 | Hair index score (% area x score, 0 to 3) ([2]; Systemic JAK1i group terminated at w4, w2, mean): 163±24 | Hair index score (% area x score, 0 to 3) ([2]; Systemic JAK1i group terminated at w4, w3): 280 and 285 and 290 and 250 and 295 | Hair index score (% area x score, 0 to 3) ([2]; Systemic JAK1i group terminated at w4, w3, mean): 280±16 | Hair index score (% area x score, 0 to 3) ([2]; Systemic JAK1i group terminated at w4, w4): 300 | Hair index score (% area x score, 0 to 3) ([2]; Systemic JAK1i group terminated at w4, w4, mean): 300±0 | Hair index score (% area x score, 0 to 3) ([2]; Systemic JAK1i group treated 4 weeks then followed off treatment, w0, n=6): 125 and 50 and 20 and 90 | Hair index score (% area x score, 0 to 3) ([2]; Systemic JAK1i group treated 4 weeks then followed off treatment, w0, n=6, mean): 71±38 | Hair index score (% area x score, 0 to 3) ([2]; Systemic JAK1i group treated 4 weeks then off treatment, w1): 125 and 50 and 20 and 90 | Hair index score (% area x score, 0 to 3) ([2]; Systemic JAK1i group treated 4 weeks then off treatment, w1, mean): 71±38 | Hair index score (% area x score, 0 to 3) ([2]; Systemic JAK1i group treated 4 weeks then off treatment, w2): 170 and 200 and 140 and 180 and 190 | Hair index score (% area x score, 0 to 3) ([2]; Systemic JAK1i group treated 4 weeks then off treatment, w2, mean): 180±23 | Hair index score (% area x score, 0 to 3) ([2]; Systemic JAK1i group treated 4 weeks then off treatment, w4): 285 and 295 and 300 | Hair index score (% area x score, 0 to 3) ([2]; Systemic JAK1i group treated 4 weeks then off treatment, w4, mean): 295±5 | Hair index score (% area x score, 0 to 3) ([2]; Systemic JAK1i group treated 4 weeks then off treatment, w8 (4 weeks off)): 245 and 200 and 210 and 195 and 270 and 75 | Hair index score (% area x score, 0 to 3) ([2]; Systemic JAK1i group treated 4 weeks then off treatment, w8 (4 weeks off), mean): 199±67 | Hair index score (% area x score, 0 to 3) ([2]; Systemic JAK1i group treated 4 weeks then off treatment, w12 (8 weeks off)): 90 and 60 and 85 and 45 and 205 and 35 | Hair index score (% area x score, 0 to 3) ([2]; Systemic JAK1i group treated 4 weeks then off treatment, w12 (8 weeks off), mean): 87±62 | pKa (Basic pKa): 7.9 | IC50 (IL‐4, STAT6‐Luc): 84 nM | IC50 (JAK3): > 30000 nM | logD (LogD7.4): 2.9
